Data as given in patent US11643428B2, “Therapeutic drug for neurodegenerative disease and application thereof” (SHANGHAI PHARMACEUTICALS HOLDING CO., LTD., priority 2018, dated 2023).

Columns and labels:
[1] = system: neuroblastoma cells SK-N-SH; experiment: Total Aβ in supernatant of SK-N-SH cells by ELISA; type: cell-based; details: 24 hours
Description: Culture of neuroblastoma cells SK-N-SH and Aβ detection: SK-N-SH cells were cultured in DMEM, plated to 24 well plates and cultured for 24 hours, then PL201 (0, 30, 100, and 300 μM) was added. After co-incubation for 24 hours, the protein level of total Aβ in supernatant was detected by ELISA.
Culture of neuroblastoma cells SK-N-SH and Aβ detection: SK-N-SH cells were cultured in DMEM, plated to 24 well plates and cultured for 24 hours, then PL202 (0, 30, and 100 μM) was added. After co-incubation for 24 hours, protein level of total Aβ in supernatant was detected by ELISA.
Culture of neuroblastoma cells SK-N-SH and Aβ detection: SK-N-SH cells were cultured in DMEM, plated to 24 well plates and cultured for 24 hours, then PL171 (300 μM) was added. After co-incubation for 24 hours, protein level of total Aβ in supernatant was detected by ELISA.
Culture of neuroblastoma cells SK-N-SH and Aβ detection: SK-N-SH cells were cultured in DMEM, plated to 24 well plates and cultured for 24 hours, then PL172 (300 μM) was added. After co-incubation for 24 hours, protein level of total Aβ in supernatant was detected by ELISA.

mouse BV-2 cell line = experiment: Expression of inflammatory factors in LPS-treated BV-2 cells by QPCR; type: cell-based; details: PL202 30, 100, 300 μM, LPS 300 ng/ml, 24 hours
Description: Neuroinflammation in the brain of AD is one of the causes of cognitive decline. Microglial cells are the key cells that mediate neuroinflammation. In this example, the inventors have explored whether PL201 has the effect of inhibiting neuroinflammation by detecting the expressions of inflammatory factors on mouse BV-2 cell line.
BV-2 cells were cultured in DMEM, plated to 24 well plates and cultured for 24 hours, then PL201 (0, 10, 30, and 100 μM) and LPS (300 ng/ml) were added. After co-incubation for 24 hours, Trizol was used to extract RNA and the expressions of related inflammatory factors were detected by QPCR.
Mouse BV-2 cells were cultured in DMEM, plated to 24 well plates and cultured for 24 hours, then PL202 (0, 30, 100, and 300 μM) and LPS (300 ng/ml) were added. After co-incubation for 24 hours, Trizol was used to extract RNA and the expressions of related inflammatory factors were detected by QPCR.

COc1cc(/C=C/C(=O)NC2OC(C)C(O)C(O)C2O)ccc1O [PL171, (1-amino-β-L-rhamnopyranosyl) ferulamide]
Aβ production (total Aβ in supernatant) ([1]; 300 μM): significantly inhibited

COc1cc(/C=C/C(=O)OC2OC(C)C(O)C(O)C2O)ccc1O [PL202, (β-L-rhamnopyranosyl) ferulic acid ester]
expression of inflammatory factor IL-1β (mouse BV-2 cell line): significantly inhibited | expression of inflammatory factor iNOS (mouse BV-2 cell line): significantly inhibited | Aβ production (total Aβ in supernatant) ([1]; 30, 100 μM): significantly inhibited

COc1cc(/C=C/C(=O)NC2OC(C)C(O)C(O)C2O)ccc1O [PL172, (1-amino-α-L-rhamnopyranosyl) ferulamide]
Aβ production (total Aβ in supernatant) ([1]; 300 μM): significantly inhibited
